Assay results taken from patent US20160279135A1, “THERAPIES FOR TREATING MYELOPROLIFERATIVE DISORDERS” (Gilead Sciences, Inc., priority 2013, published 2016).
Several values for one entry are separate records, joined by “and”; a condition that tells them apart may be missing. Equal values may be shown once.

Tests used:
[1] = tested on: pS6RP Ser235/236; experiment: flow cytometry of S6RP phosphorylation in CD34+ progenitor cells from MF patients; format: cell-based, human; settings: for normalized percentage of TPO-activated S6RP phosphorylation (p-S6RP): 2.0 μM, then TPO, one value per patient, TPO-treated vehicle = 100
Procedure: (§1) In this example, PBMCs were isolated from whole blood of myelofibrosis (MF) patients who had not received treatments (i.e. naïve patients) or received ruxolitinib (i.e. rux-treated patients). The cells were treated with 0.02, 0.2, or 2.0 μM of Compound B or vehicle (0.1% DMSO in 0.1% FBS/RPMI) for 2 hours at 37° C. The cells were then fixed, permeabilized, and stained for FACS analysis. Antibodies specific to p-AKT Ser473 and pS6RP Ser235/236 were used to detect AKT phosphorylation (p-AKT) and S6RP phosphorylation (p-S6RP) in CD34^+/CD3^−/CD14^−/CD19/CD66^− (BD Biosciences) gated cells using flow cytometry. The percentage of basal (i.e. untreated with TPO) AKT and S6RP phosphorylation were normalized to vehicle control (i.e. “no TPO” values shown in Table 2). A two-tailed paired t-test (GraphPad Prism) was used to calculate p-values. Values of p<0.05 were considered significant.
(§2) Also, PBMC cells were treated with Compound B and with TPO as described above. The percentage of TPO-activated AKT and S6RP phosphorylation were normalized to those of TPO-treated vehicle. […] Also, the inhibition to PI3K signaling was dose-dependent to Compound B.
(§3) Similar studies were conducted with PI3K inhibitors Compounds C and D. PBMC from MF patients had received ruxolitinib (rux) and MF patient had received Compound A. The cells were treated with Compounds C or D at 0, 20.0, 200.0, 2000.0 nM for 2 hours at 37° C. Cells were treated with TPO for 10 minutes. The percentage of basal p-AKT and p-S6RP levels were normalized to vehicle control and those of TPO-treated were normalized to TPO-treated vehicle control. The PI3K inhibitors Compounds C and D had the chemical names of (S)-2-(1-((9H-purin-6-yl)amino)ethyl)-6-fluoro-3-phenylquinazolin-4(3H)-one and (S)-2,4-diamino-6-(((5-chloro-8-fluoro-4-oxo-3-(pyridine-3-yl)-3,4-dihydroquinazolin-2-yl)(cyclopropyl)methyl)amino)pyrimidine-5-carbonitrile, respectively.

[2] = tested on: pS6 Ser235/236; experiment: Western blot of S6 phosphorylation in UT-7/TPO cells; format: cell-based; settings: 2 h, then TPO 50 ng/mL 10 min, vs vehicle
Procedure: (§4) In addition, Compound B was examined for the effects on the PI3K signaling pathway by determining the levels of AKT and S6 phosphorylation with or without TPO activation. Two cell lines, BaF3/MPL and UT-7/TPO sensitive or responsive to TPO activation were used. The cells were starved (i.e. growing on medium having less FBS) in […] FBS/RPMI for two hours before treated with 0.1, 1.0, or 2.0 μM of Compound B or vehicle (0.1% DMSO in RPMI) for 2 hours at 37° C. To examine the TPO-activated phosphorylation, the cells were then treated or activated with 50 ng/mL of human recombinant TPO (Peprotech) for 10 minutes at 37° C. The TPO activation or treatment may reflect the conditions in diseased cells as the PI3K pathway is activated by TPO in myelofibrosis. After treating with compound and/or TPO, the cells were collected, lysed by lysis buffer (Cell Signaling), separated by SDS-PAGE, and analyzed by the Western blot using antibodies specific to p-AKT Ser473 or pS6 Ser235/236 (Cell Signaling). The phosphorylation levels in treated cells were calculated and compared to those of untreated cells (i.e. vehicle as negative control).

[3] = tested on: pS6 Ser235/236; experiment: Western blot of S6 phosphorylation in BaF3/MPL cells; format: cell-based; settings: 2 h, then TPO 50 ng/mL 10 min, vs vehicle
Procedure: as §4

[4] = tested on: p-AKT Ser473; experiment: flow cytometry of AKT phosphorylation in CD34+ progenitor cells from MF patients; format: cell-based, human; settings: 2.0 μM
Procedure: as §1, §2, §3

[5] = tested on: p-STAT5; experiment: flow cytometry of p-STAT5 in TPO-stimulated CD34+ cells from MF patients on chronic ruxolitinib (Example 8); format: cell-based, human; settings: 2 h, then TPO 50 ng/mL, one value per patient, TPO vehicle = 100
Procedure: (§5) In this study, PBMCs were isolated from the whole blood from five MF patients receiving chronic ruxolitinib treatment (rux 1-rux 5). The cells were treated with either vehicle, ruxolitinib, and/or Compound B for 2 hours then stimulated with TPO (50 ng/mL) for 10 minutes. Ruxolitinib at the dose of 1 or 20 nM and Compound B at the dose of 45, 200, or 700 nM were used.
The treated cells were then fixed, permeabilized and stained for FACS analysis using FACSCalibur analyzed using BD FACSDiva software.

[6] = clinical; settings: human, in vivo
Excerpt: For in vitro or in vivo studies, the effect amount of Compounds A, B, C, D, E, or ruxolinitib may be adjusted according to the experimental condition. Similarly, the effect amount of Compounds D1, D2, D3, D4, D5, D6, D7, D8, D9, E1, E2, E3, E4, E5, E6, E7, E8, E9, or F, may be adjusted according to the experimental condition for in vitro or in vivo studies. For example, compounds may be used in the amount of 0.001, 0.002, 0.003, 0.004, 0.005, 0.006, 0.007, 0.008, 0.009, 0.01, 0.02, 0.03, 0.04, 0.05, 0.06, 0.07, 0.08, 0.09, 0.1, 0.2, 0.3, 0.4, 0.5, 0.6, 0.7, 0.8, 0.9, 1.0, 1.5, 2.0, 2.5, 3.0, 3.5, 4.0, 5.0, 6.0, 7.0, 8.0, 9.0, or 10.0 μM. In some studies, the in vitro doses of the compounds may be calculated to correspond to the clinical doses of the compounds. The calculation may consider various factors, such as protein binding and plasma concentration. […] It is understood that the in vitro doses may differ, depend on the assay condition and other calculation factors, and that the clinical doses may differ depend on the disease indication and the patient condition.
as §5
Next, Pfeiffer cells were treated with IL6 (0 or 3 ng/mL), Compound A (0, 136, 272, or 695 nM), and/or Compound B (0, 74, 200, or 421 nM) (n=4 per group) for 96 hours. The doses in this assay may correspond to those used in a clinical setting. […] In addition, the in-vitro dose of 136 nM Compound A may correspond to the potential Caverage detected in patients receiving Compound A at 300 mg once a day.

## CC[C@H](Nc1ncnc2[nH]cnc12)c1nc2cccc(F)c2c(=O)n1-c1ccccc1 [Compound B, (S)-2-(1-((9H-purin-6-yl)amino)propyl)-5-fluoro-3-phenylquinazolin-4(3H)-one]
[1]; progenitor cells of naïve MF patients
  normalized percentage of TPO-activated S6RP phosphorylation (p-S6RP): 23% and 45%
[1]; progenitor cells of rux-treated MF patients
  normalized percentage of TPO-activated S6RP phosphorylation (p-S6RP): 21% and 45% and 36% and 20% and 31%
[1]; 0.02-2.0 μM, 2 h, no TPO, MF progenitor cells vs untreated, data not shown
  basal p-S6RP levels: reduced levels
[2]; 0.1 μM
  reduced p-S6 levels: 13%
[2]; 1.0 μM
  reduced p-S6 levels: 28%
[2]; 2.0 μM
  reduced p-S6 levels: 48%
[3]; 0.1 μM
  reduced p-S6 levels: 24%
[3]; 1.0 μM
  reduced p-S6 levels: 27%
[3]; 2.0 μM
  reduced p-S6 levels: 41%
[4]; then TPO, progenitor cells of rux-treated MF patients, one value per patient, TPO-treated vehicle = 100
  normalized percentage of TPO-activated AKT phosphorylation (p-AKT): 40% and 29% and 35% and 16% (2×)
[4]; progenitor cells from Compound A-treated MF patients, one value per subject, column 0 = 100
  normalized percentage of p-AKT: 24% and 55% and 30%
[5]; Compound B 45 nM
  percentage of the p-STAT5 levels: 92% (2×) and 85% and 95% and 83%
[5]; Compound B 200 nM
  percentage of the p-STAT5 levels: 93% and 83% and 91% and 72% and 90%
[5]; Compound B 700 nM
  percentage of the p-STAT5 levels: 88% and 86% and 82% and 106% and 78%
[6]
  in-vitro dose corresponding to the potential Caverage: 200 nM
  in-vitro dose corresponding to the potential Cmin: 74 nM
[6]; 150 mg
  Cmax: 421 nM
